Data taken from publication PMC12369477 (Journal of Experimental Botany, 2025).
pKd: −log10 of the molar value.

Assays:
[1] = biological target: T1, AtGH3.6 (Arabidopsis thaliana, UniProt Q9LSQ4); test: crystal structure with AMP and Asp; MST; format: binding
T1 construct: gene GH3.6
T1 sequence (Q9LSQ4 1-612): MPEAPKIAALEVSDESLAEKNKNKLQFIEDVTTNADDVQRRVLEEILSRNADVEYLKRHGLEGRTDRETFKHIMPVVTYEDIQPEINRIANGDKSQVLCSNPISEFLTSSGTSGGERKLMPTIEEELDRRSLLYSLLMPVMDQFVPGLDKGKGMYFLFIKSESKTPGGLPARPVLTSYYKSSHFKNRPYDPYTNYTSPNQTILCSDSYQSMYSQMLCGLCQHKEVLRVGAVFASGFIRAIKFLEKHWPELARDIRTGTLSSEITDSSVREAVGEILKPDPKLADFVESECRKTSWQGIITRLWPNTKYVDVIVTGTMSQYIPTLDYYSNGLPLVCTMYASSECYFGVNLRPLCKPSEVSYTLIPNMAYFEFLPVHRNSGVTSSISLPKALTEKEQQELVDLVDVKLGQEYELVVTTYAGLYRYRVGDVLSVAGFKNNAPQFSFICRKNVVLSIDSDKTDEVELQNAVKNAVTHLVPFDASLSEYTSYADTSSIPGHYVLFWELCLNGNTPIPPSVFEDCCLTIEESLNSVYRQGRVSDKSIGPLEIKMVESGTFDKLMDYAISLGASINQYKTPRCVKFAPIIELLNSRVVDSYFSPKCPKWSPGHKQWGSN

[2] = biological target: T1, AtGH3.6; test: MST; format: binding
[3] = biological target: T2, UGT84B1 (Arabidopsis thaliana, UniProt O22182); test: bacterial lysate glucosylation assay, HPLC-MS/MS; format: cell-based
T2 construct: recombinant AtUGT84B1 in E. coli lysate
T2 sequence (O22182 1-456): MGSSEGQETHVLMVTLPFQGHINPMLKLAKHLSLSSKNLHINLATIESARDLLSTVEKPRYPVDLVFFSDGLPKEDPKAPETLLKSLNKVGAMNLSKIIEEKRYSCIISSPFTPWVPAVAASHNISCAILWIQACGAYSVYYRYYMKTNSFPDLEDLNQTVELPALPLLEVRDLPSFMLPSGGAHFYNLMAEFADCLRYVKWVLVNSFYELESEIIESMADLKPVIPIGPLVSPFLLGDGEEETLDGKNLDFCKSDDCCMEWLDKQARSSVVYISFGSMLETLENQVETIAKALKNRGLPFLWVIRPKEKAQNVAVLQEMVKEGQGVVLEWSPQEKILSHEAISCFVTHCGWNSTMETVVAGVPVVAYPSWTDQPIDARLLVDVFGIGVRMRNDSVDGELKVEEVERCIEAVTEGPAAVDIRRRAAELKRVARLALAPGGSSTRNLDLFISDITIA

[4] = biological target: T3, UGT74D1 (Arabidopsis thaliana, UniProt Q9SKC5); test: bacterial lysate glucosylation assay, HPLC-MS/MS; format: cell-based
T3 construct: recombinant AtUGT74D1 in E. coli lysate
T3 sequence (Q9SKC5 1-456): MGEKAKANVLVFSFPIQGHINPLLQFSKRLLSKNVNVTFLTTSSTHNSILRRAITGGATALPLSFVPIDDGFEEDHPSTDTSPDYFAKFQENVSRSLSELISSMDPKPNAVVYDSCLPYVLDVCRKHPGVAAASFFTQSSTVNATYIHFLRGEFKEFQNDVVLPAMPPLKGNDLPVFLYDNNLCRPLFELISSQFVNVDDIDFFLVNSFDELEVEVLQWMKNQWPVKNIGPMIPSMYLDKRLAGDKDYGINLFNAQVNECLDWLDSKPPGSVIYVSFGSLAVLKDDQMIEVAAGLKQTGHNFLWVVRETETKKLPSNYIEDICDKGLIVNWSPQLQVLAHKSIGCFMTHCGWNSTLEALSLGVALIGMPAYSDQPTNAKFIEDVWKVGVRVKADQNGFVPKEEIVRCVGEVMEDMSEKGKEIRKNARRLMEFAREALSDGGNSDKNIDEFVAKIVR

[5] = biological target: T1, AtGH3.6; test: MST; also conjugated by AtGH3.[…] in bacterial lysate assay; format: binding

N[C@@H](CC(=O)O)C(=O)O [Asp, aspartate]
pKd [1]: 3.17

N[C@@H](CCC(=O)O)C(=O)O [Glu]
pKd [2]: 3.14

O=C(O)Cc1c[nH]c2ccccc12 [IAA, indole-3-acetic acid]
bacterial lysate glucosylation assay, HPLC-MS/MS [3]: Both UGT84B1 and UGT74D1 recombinant proteins showed the capability to produce IAA-glc and PAA-glc | bacterial lysate glucosylation assay, HPLC-MS/MS [4]: Both UGT84B1 and UGT74D1 recombinant proteins showed the capability to produce IAA-glc and PAA-glc | pKd ([2]; read-out: Kd): ~4.22

O=C(O)Cc1ccccc1 [PAA, phenylacetic acid]
pKd [5]: ~4.22
